Results from ChEMBL document CHEMBL1201862, “PubChem BioAssay data set” (2004).
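48-hour exposure; five concentrations; linearly interpolated endpoints. Abbreviation: GI50, concentration required for 50% inhibition of growth.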 Active and inactive are the calls of the source. Cut-off read from the data, not from the text of the source: active = GI50 up to about 1.1 µM and inactive = higher.

Legend:
Test in all cases: growth of human tumour cells (NCI), 48 h
COLO 205 = tested on: COLO 205
NCI/ADR-RES = tested on: NCI/ADR-RES
DU-145 = tested on: DU-145
NCI-H460 = tested on: NCI-H460
SK-MEL-2 = tested on: SK-MEL-2
HOP-92 = tested on: HOP-92
PC-3 = tested on: PC-3
SNB-19 = tested on: SNB-19
MDA-MB-435 = tested on: MDA-MB-435
SR = tested on: SR
SF-539 = tested on: SF-539
OVCAR-4 = tested on: OVCAR-4
HCT-116 = tested on: HCT-116
OVCAR-3 = tested on: OVCAR-3
HOP-62 = tested on: HOP-62
NCI-H522 = tested on: NCI-H522
LOX IMVI = tested on: LOX IMVI
KM12 = tested on: KM12
K562 = tested on: K562
NCI-H226 = tested on: NCI-H226

SMILES | GI50 (COLO 205) | GI50 (NCI/ADR-RES) | GI50 (DU-145) | GI50 (NCI-H460) | GI50 (SK-MEL-2) | GI50 (HOP-92) | GI50 (PC-3) | GI50 (SNB-19) | GI50 (MDA-MB-435) | GI50 (SR) | GI50 (SF-539) | GI50 (OVCAR-4) | GI50 (HCT-116) | GI50 (OVCAR-3) | GI50 (HOP-62) | GI50 (NCI-H522) | GI50 (LOX IMVI) | GI50 (KM12) | GI50 (K562) | GI50 (NCI-H226)
O=C(Oc1ccc2c(c1)CN(Cc1ccccc1)CO2)c1ccccc1 | 16.9 µM (inactive) | 23.4 µM (inactive) | 17.9 µM (inactive) | 18.7 µM (inactive) | 22 µM (inactive) | 12.7 µM (inactive) | 15.9 µM (inactive) | 18.7 µM (inactive) | 21.8 µM (inactive) | 18.2 µM (inactive) | 17.3 µM (inactive) | 15.7 µM (inactive) | 16 µM (inactive) | 15.4 µM (inactive) | 18.4 µM (inactive) | 7.06 µM (inactive) | 17.1 µM (inactive) | 20.7 µM (inactive) | 17.6 µM (inactive) | 
CN1C(=O)[C@@H]2N(CSC2(C)C)C1=S | > 100 µM (inactive) | > 100 µM (inactive) | > 100 µM (inactive) | > 100 µM (inactive) | > 100 µM (inactive) | 98.6 µM (inactive) | > 100 µM (inactive) | > 100 µM (inactive) | > 100 µM (inactive) | > 100 µM (inactive) | > 100 µM (inactive) | > 100 µM (inactive) | > 100 µM (inactive) | > 100 µM (inactive) | > 100 µM (inactive) | 29.1 µM (inactive) |  | > 100 µM (inactive) | 69.7 µM (inactive) | > 100 µM (inactive)
CC(=O)Nc1sc([N+](=O)[O-])cc1S(=O)(=O)c1ccc(Cl)cc1 | 1.29 µM (inactive) | 3.22 µM (inactive) | 3.3 µM (inactive) | 1.65 µM (inactive) | 0.92 µM (active) | 2 µM (inactive) | 2.02 µM (inactive) | 3.31 µM (inactive) | 3.3 µM (inactive) |  | 3.18 µM (inactive) | 1.86 µM (inactive) | 2.99 µM (inactive) | 2.32 µM (inactive) | 1.39 µM (inactive) | 1.41 µM (inactive) | 3.94 µM (inactive) | 2.99 µM (inactive) | 5.47 µM (inactive) | 3.96 µM (inactive)
CC(=O)O/N=C1\C=Cc2c(no[n+]2[O-])C1=O | 9.23 µM (inactive) | 27.6 µM (inactive) | 17.9 µM (inactive) | 34.7 µM (inactive) | 17.8 µM (inactive) |  | 17 µM (inactive) | > 100 µM (inactive) | 20.6 µM (inactive) | 15.8 µM (inactive) | 17.3 µM (inactive) | 17.2 µM (inactive) | 14.3 µM (inactive) | 16.2 µM (inactive) | 38.3 µM (inactive) | 17 µM (inactive) | 18 µM (inactive) | 18 µM (inactive) | 35 µM (inactive) | > 100 µM (inactive)
CC(C)=CCc1[nH]c2ccccc2c1C1=C(O)C(=O)C(c2c(CC=C(C)C)[nH]c3ccccc23)=C(O)C1=O | 1.63 µM (inactive) | 2.7 µM (inactive) | 2.39 µM (inactive) | 1.34 µM (inactive) | 1.64 µM (inactive) | 1.12 µM (inactive) | 1.83 µM (inactive) | 2.03 µM (inactive) | 0.608 µM (active) | 1.17 µM (inactive) |  | 3.58 µM (inactive) | 1.5 µM (inactive) | 1.48 µM (inactive) | 0.815 µM (active) | 2.2 µM (inactive) | 1.43 µM (inactive) | 1.04 µM (active) | 0.989 µM (active) | 1.73 µM (inactive)
COC(=O)N/N=C(\c1ccccc1)c1ccc(OC)cc1 | > 100 µM (inactive) | > 100 µM (inactive) | > 100 µM (inactive) | > 100 µM (inactive) | > 100 µM (inactive) |  | > 100 µM (inactive) | > 100 µM (inactive) | 76.7 µM (inactive) | > 100 µM (inactive) | > 100 µM (inactive) | > 100 µM (inactive) | > 100 µM (inactive) | > 100 µM (inactive) |  | > 100 µM (inactive) | 35.3 µM (inactive) | > 100 µM (inactive) | > 100 µM (inactive) | > 100 µM (inactive)
CCOC(=O)c1nc2ccc(C(F)(F)F)cc2nc1NCc1cc(OC)c(OC)c(OC)c1 | 29.3 µM (inactive) | 94.8 µM (inactive) | 66.5 µM (inactive) |  | 40.8 µM (inactive) | 27.7 µM (inactive) | 41.9 µM (inactive) | > 100 µM (inactive) | 35.6 µM (inactive) | 7.38 µM (inactive) | 38.6 µM (inactive) |  | 30 µM (inactive) | 55.5 µM (inactive) | > 100 µM (inactive) | 37.1 µM (inactive) | 35.7 µM (inactive) | 32.9 µM (inactive) |  | > 100 µM (inactive)
CC1(C)[N+]([O-])=[N+]([O-])C1(C)O (centres undefined) | > 100 µM (inactive) | > 100 µM (inactive) | > 100 µM (inactive) | > 100 µM (inactive) | > 100 µM (inactive) |  | > 100 µM (inactive) | > 100 µM (inactive) | > 100 µM (inactive) | > 100 µM (inactive) | > 100 µM (inactive) | > 100 µM (inactive) | > 100 µM (inactive) | > 100 µM (inactive) |  | > 100 µM (inactive) | > 100 µM (inactive) | > 100 µM (inactive) | > 100 µM (inactive) | > 100 µM (inactive)
Cn1nnnc1SC(F)(F)c1nc2ccccc2o1 | > 100 µM (inactive) | > 100 µM (inactive) | > 100 µM (inactive) | > 100 µM (inactive) | > 100 µM (inactive) | > 100 µM (inactive) | > 100 µM (inactive) |  | > 100 µM (inactive) | > 100 µM (inactive) | > 100 µM (inactive) | > 100 µM (inactive) | > 100 µM (inactive) | > 100 µM (inactive) | > 100 µM (inactive) | > 100 µM (inactive) |  | 35.9 µM (inactive) | > 100 µM (inactive) | > 100 µM (inactive)
COc1ccc2c3c1OC1C(=O)C=CC4(CC2)N(C)CCC314 (centres undefined) | 6.19 µM (inactive) | 22.9 µM (inactive) | 14.3 µM (inactive) | 16.6 µM (inactive) | 16.3 µM (inactive) | 22.7 µM (inactive) | 21.7 µM (inactive) | 19.5 µM (inactive) | 12.2 µM (inactive) | 7.21 µM (inactive) |  | 24 µM (inactive) | 14 µM (inactive) | 19.4 µM (inactive) | 29.6 µM (inactive) | 11 µM (inactive) | 11.4 µM (inactive) | 14.1 µM (inactive) | 12.2 µM (inactive) | 
O=C(/C=C/c1ccc(OCc2ccccc2)cc1)NCc1ccc(C(=O)NCCc2c[nH]c3ccccc23)cc1 | > 75.5 µM (inactive) | > 100 µM (inactive) | 32.8 µM (inactive) | 15.4 µM (inactive) | 31 µM (inactive) | 21 µM (inactive) | 12 µM (inactive) | 9.77 µM (inactive) | > 57.3 µM (inactive) | 20.9 µM (inactive) | 2.67 µM (inactive) | 7.76 µM (inactive) | 15.4 µM (inactive) | 29 µM (inactive) | 3.66 µM (inactive) |  | 44.3 µM (inactive) | 63.8 µM (inactive) | 44.4 µM (inactive) | > 34.6 µM (inactive)
CCCCCCCC/C=C(\Br)C(O)C(Br)Br (centres undefined) | 18.9 µM (inactive) | 26.2 µM (inactive) | 38.6 µM (inactive) | 30.4 µM (inactive) | 24.8 µM (inactive) | 20.9 µM (inactive) | 38.1 µM (inactive) | 31.8 µM (inactive) | 21.5 µM (inactive) | 40.8 µM (inactive) |  | 20.6 µM (inactive) | 27.2 µM (inactive) | 17.4 µM (inactive) | 19.6 µM (inactive) | 19.1 µM (inactive) | 19.9 µM (inactive) | 19.1 µM (inactive) | 69.7 µM (inactive) | 
CN(C)Cc1cc(C(=O)/C=C/c2ccc(Cl)cc2)cc(CN(C)C)c1O | 4.27 µM (inactive) | 15.8 µM (inactive) | 12.1 µM (inactive) | 10.1 µM (inactive) |  |  | 10.8 µM (inactive) | 8.75 µM (inactive) | 13.7 µM (inactive) | 11.1 µM (inactive) | 19.3 µM (inactive) |  | 12.9 µM (inactive) | 3.06 µM (inactive) | 4.36 µM (inactive) | 3.24 µM (inactive) | 4.43 µM (inactive) | 4.17 µM (inactive) | 5.41 µM (inactive) | 22 µM (inactive)
CCC(CCCN)Nc1cc(OC)cc2c(C)ccnc12 (centres undefined) | 18.2 µM (inactive) | 25.1 µM (inactive) | 17.5 µM (inactive) | 17.7 µM (inactive) | 20.8 µM (inactive) | 14 µM (inactive) | 11.6 µM (inactive) | 11.3 µM (inactive) | 14.8 µM (inactive) | 15.3 µM (inactive) | 18.4 µM (inactive) | 17.8 µM (inactive) | 15.9 µM (inactive) | 15.4 µM (inactive) | 15.1 µM (inactive) |  | 16.3 µM (inactive) | 14.9 µM (inactive) | 15 µM (inactive) | 13.3 µM (inactive)
COC(=O)c1c[nH]c(=O)[nH]c1=O [ISOOROTIC ACID METHYL ESTER] | > 100 µM (inactive) | > 100 µM (inactive) | > 100 µM (inactive) | > 100 µM (inactive) | > 100 µM (inactive) | 30.5 µM (inactive) | > 100 µM (inactive) | > 100 µM (inactive) | > 100 µM (inactive) | > 100 µM (inactive) | > 100 µM (inactive) |  | > 100 µM (inactive) | > 100 µM (inactive) |  | > 100 µM (inactive) | > 100 µM (inactive) | > 100 µM (inactive) | > 100 µM (inactive) | 
